Experimental data published in patent publication US20080234188A1, “Antimicrobial Peptides” (The Hospital for Sick Children, priority 2001, published 2008).
Converted amounts (≈) assume the structure as drawn. Where a SMILES comes first, the peptide text is derived from it.

Columns and labels:
[1] = tested on: C498: E. coli, wild type strain; format: cell-based; details: C498: , wild type strain
Source text: (§1) The bacterial strains used were E. coli C498, E. coli C500, Escherichia coli UB1005 and its antibiotic supersusceptible derivative DC2 (22); a clinical isolate of Staphylococcus epidermidis (C621); coryneform bacterial strain Corynebacterium xerosis (C875); and E. coli ATCC 25922, Staphylococcus aureus ATCC 25923, Enterococcus faecalis ATCC 29212, Bacillus subtilis ATCC 6633 and Pseudomonas aeruginosa ATCC 27853, all from American Type Culture Collection.
(§2) Peptide antibacterial activity was assessed by the method of R. Hancock et al. (Wu & Hancock (1999), J. Biol. Chem., v. 274, pp. 29-35). Test strains of bacteria from Mueller Hinton agar (MHA) plates were inoculated into 5 ml Mueller Hinton Broth (MHB) in tubes and grown overnight at 37° C. on a shaker (180 rpm). Serial dilutions of test peptides (at 10 times the required test concentrations) were made in 0.01% acetic acid, 0.2% BSA, in polypropylene or coated glass tubes as follows: the test peptide was (a) dissolved in distilled water at 20 times the required maximum concentration (enough final volume for all tests to be performed on a given day); (b) diluted into an equal volume of 0.02% acetic acid, 0.4% BSA to give 10 times the required maximum concentration; (c) serial doubling dilutions were performed in 0.01% acetic acid, 0.2% BSA to provide serial dilutions of peptides at 10 times the required test concentrations, e.g., 640, 320, 160, . . . 2.5 μg/ml. (No deleterious effects of long-term storage of peptides in these media have been detected). Overnight bacterial cultures were diluted in MHB to give 2−7×10^5 colony forming units/ml. Bacterial suspension (100 μl) was dispensed in each well; controls without bacteria were maintained in parallel. To each well was added 11 μl of 10× test peptide and plates were incubated at 37° C. for 18-24 hours, and checked again at 40-48 hours. Plates were read visually and at 600 nm in a microplate reader (Molecular Devices).
(§3) were synthesized. The antibacterial activity of these peptides was determined against both Gram-positive bacteria ([…], Corynebacterium xerosis) and Gram-negative bacteria (various strains of E. coli). The results are shown in Table 2, along with the average hydrophobicity of each peptide, calculated as described herein.

[2] = tested on: C500: E. coli, antibiotic strain; format: cell-based; details: C500: , antibiotic strain
Source text: as §1, §2, §3

[3] = tested on: Corynebacterium xerosis (C875); format: cell-based
In short: (§4)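 Broth microdilution in Mueller Hinton Broth, inoculum 2−7×10^5 CFU/ml. Peptides serially doubled in 0.01% acetic acid, 0.2% BSA and added at 10× final concentration. Incubation 37° C for 18-24 h, rechecked at 40-48 h; growth read visually and at 600 nm.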

[4] = tested on: Staphylococcus epidermidis (C621); format: cell-based; details: C621
In short: as §4

E. coli DC2 = assay: Assay of antibacterial activity (MIC), E. coli DC2; format: cell-based, Escherichia coli; details: Table 5A
In short: (§5)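 Broth microdilution MIC in Mueller Hinton broth, 2−7×10^5 CFU/ml inoculum from overnight cultures. Peptides serially doubled in 0.01% acetic acid, 0.2% BSA at 10× test concentration. Incubation 37° C for 18-24 h, rechecked at 40-48 h; growth read visually and at 600 nm.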

E. coli UB1005 = format: cell-based, Escherichia coli; details: UB1005
In short: as §5

E. coli ATCC25922 = format: cell-based
Source text: as §1, §2
(§6) A further number of the peptides of the invention were tested for antimicrobial activity against a range of Gram-positive and Gram-negative bacteria by the assay described immediately before Example 1.

P. aeruginosa ATCC27853 = format: cell-based, Pseudomonas aeruginosa
Source text: as §1, §2, §6

S. aureus ATCC25923 = format: cell-based, Staphylococcus aureus
Source text: as §1, §2, §6

E. faecalis ATCC29212 = format: cell-based, Enterococcus faecalis
Source text: as §1, §2, §6

B. subtilis ATCC6633 = format: cell-based, Bacillus subtilis
Source text: as §1, §2, §6

Human RBC = format: cell-based
Protocol: (§7) Erythrocytes from heparinized rabbit or human blood were washed three times with phosphate-buffered saline (PBS; 5 mM phosphate buffer, 0.14 M saline, pH 7.3), and centrifuged at 1000×g for 15 min at 4° C. The erythrocytes were diluted with PBS to 4% (v/v). Dilutions of the peptides in PBS were plated in 100 μl volumes in microtitre plates (Costar 3790, polypropylene) together with 100μl of the erythrocyte suspension. PBS was used as control and 100% lysis was determined in 0.1% Triton X-100. The plates were incubated at 37° C. for 1 h and then centrifuged at 1000×g for 5 min. 100 μl aliquots of the supernatant were transferred to microtitre plates (Nunc, polystyrene), and the release of hemoglobin was monitored by measurement of the absorbance at 540 nm in a microplate reader. The results are shown in Table 6, for peptide concentrations of […]. With only one or two exceptions, little or no hemolysis was seen.

Rabbit RBC = format: cell-based
Protocol: as §7

Structure (SMILES)	MIC C498 [1] [µM]	MIC C500 [2] [µM]	MIC C875 [3] [µM]	MIC C. xerosis C875 [3] [µM]	MIC S. epidermidis C621 [4] [µM]	MIC E. coli DC2 (E. coli DC2) [µM]	MIC E. coli UB1005 (E. coli UB1005) [µM]	MIC E. coli ATCC25922 (E. coli ATCC25922) [µM]	MIC P. aeruginosa ATCC27853 (P. aeruginosa ATCC27853) [µM]	MIC S. aureus ATCC25923 (S. aureus ATCC25923) [µM]	MIC E. faecalis ATCC29212 (E. faecalis ATCC29212) [µM]	MIC B. subtilis ATCC6633 (B. subtilis ATCC6633) [µM]	Human RBC (% lysis) 50 μM (Human RBC) [% lysis]	Human RBC (% lysis) 200 μM (Human RBC) [% lysis]	Rabbit RBC (% lysis) 50 μM (Rabbit RBC) [% lysis]	Rabbit RBC (% lysis) 200 μM (Rabbit RBC) [% lysis]	MIC C621 [4] [µM]
C[C@H](NC(=O)[C@H](C)NC(=O)[C@H](Cc1ccccc1)NC(=O)[C@H](C)NC(=O)[C@H](C)NC(=O)[C@H](Cc1c[nH]c2ccccc12)NC(=O)[C@H](C)NC(=O)[C@H](C)NC(=O)[C@H](Cc1ccccc1)NC(=O)[C@H](C)NC(=O)[C@H](C)NC(=O)[C@H](CCCCN)NC(=O)[C@H](CCCCN)NC(=O)[C@H](CCCCN)NC(=O)[C@H](CCCCN)NC(=O)[C@H](CCCCN)NC(=O)[C@@H](N)CCCCN)C(N)=O [F17(K6), KKKKKKAAFAAWAAFAA-NH2] (H-KKKKKKAAFAAWAAFAA-NH2; N-terminus assumed)	0.5 (≈ 0.918 µg/mL)	<0.25	0.5 (≈ 0.918 µg/mL)	0.5 (≈ 0.918 µg/mL)	4 (≈ 7.34 µg/mL)	0.5 (≈ 0.918 µg/mL)	1 (≈ 1.84 µg/mL)	8 (≈ 14.7 µg/mL)	16 (≈ 29.4 µg/mL)	>32	>32	8 (≈ 14.7 µg/mL)	0	0	0	1	
C[C@H](NC(=O)[C@H](C)NC(=O)[C@H](CCCCN)NC(=O)[C@H](CCCCN)NC(=O)[C@@H](N)CCCCN)C(=O)N[C@@H](C)C(=O)N[C@@H](Cc1ccccc1)C(=O)N[C@@H](C)C(=O)N[C@@H](C)C(=O)N[C@@H](Cc1c[nH]c2ccccc12)C(=O)N[C@@H](C)C(=O)N[C@@H](C)C(=O)N[C@@H](Cc1ccccc1)C(=O)N[C@@H](C)C(=O)N[C@@H](CCCCN)C(=O)N[C@@H](CCCCN)C(=O)N[C@@H](CCCCN)C(N)=O [Peptide F17, KKKAAAFAAWAAFAKKK-NH2] (H-KKKAAAFAAWAAFAKKK-NH2; N-terminus assumed)				4 (≈ 7.34 µg/mL)	>32	16 (≈ 29.4 µg/mL)	32 (≈ 58.7 µg/mL)	>32	>32	>32	>32	16 (≈ 29.4 µg/mL)	0	0	0	2	
C[C@H](NC(=O)[C@H](C)NC(=O)[C@H](Cc1ccccc1)NC(=O)[C@H](C)NC(=O)[C@H](C)NC(=O)[C@H](CCCNC(=N)N)NC(=O)[C@H](CCCNC(=N)N)NC(=O)[C@@H](N)CCCNC(=N)N)C(=O)N[C@@H](Cc1c[nH]c2ccccc12)C(=O)N[C@@H](C)C(=O)N[C@@H](C)C(=O)N[C@@H](Cc1ccccc1)C(=O)N[C@@H](C)C(=O)N[C@@H](C)C(=O)N[C@@H](CCCNC(=N)N)C(=O)N[C@@H](CCCNC(=N)N)C(=O)N[C@@H](CCCNC(=N)N)C(N)=O [Peptide F17R, RRRAAFAAWAAFAARRR-NH2] (H-RRRAAFAAWAAFAARRR-NH2; N-terminus assumed)	2 (≈ 4.01 µg/mL)	0.5 (≈ 1 µg/mL)	1 (≈ 2 µg/mL)	1 (≈ 2 µg/mL)	4 (≈ 8.01 µg/mL)	1 (≈ 2 µg/mL)	2 (≈ 4.01 µg/mL)	8 (≈ 16 µg/mL)	16 (≈ 32.1 µg/mL)	>32	>32	2 (≈ 4.01 µg/mL)	0	0	0	2	
C[C@H](NC(=O)[C@H](C)NC(=O)[C@H](C)NC(=O)[C@H](Cc1ccccc1)NC(=O)[C@H](C)NC(=O)[C@H](CCCCN)NC(=O)[C@@H](N)CCCCN)C(=O)N[C@@H](C)C(=O)N[C@@H](C)C(=O)N[C@@H](Cc1ccccc1)C(=O)N[C@@H](C)C(=O)N[C@@H](C)C(=O)N[C@@H](Cc1c[nH]c2ccccc12)C(=O)N[C@@H](C)C(=O)N[C@@H](C)C(=O)N[C@@H](Cc1ccccc1)C(=O)N[C@@H](C)C(=O)N[C@@H](CCCCN)C(=O)N[C@@H](CCCCN)C(=O)N[C@@H](CCCCN)C(=O)N[C@@H](CCCCN)C(N)=O [Peptide F21] (H-KKAFAAAAAFAAWAAFAKKKK-NH2; N-terminus assumed)	8 (≈ 17.6 µg/mL)	4 (≈ 8.78 µg/mL)		0.5 (≈ 1.1 µg/mL)	8 (≈ 17.6 µg/mL)	4 (≈ 8.78 µg/mL)	8 (≈ 17.6 µg/mL)	32 (≈ 70.3 µg/mL)	>32	>32	>32	2 (≈ 4.39 µg/mL)	0	0	1	3	8 to 16
C[C@H](NC(=O)[C@H](C)NC(=O)[C@H](C)NC(=O)[C@H](CCCCN)NC(=O)[C@@H](N)CCCCN)C(=O)N[C@@H](C)C(=O)N[C@@H](Cc1ccccc1)C(=O)N[C@@H](C)C(=O)N[C@@H](C)C(=O)N[C@@H](Cc1ccccc1)C(=O)N[C@@H](C)C(=O)N[C@@H](C)C(=O)N[C@@H](Cc1c[nH]c2ccccc12)C(=O)N[C@@H](Cc1ccccc1)C(=O)N[C@@H](C)C(=O)N[C@@H](C)C(=O)N[C@@H](Cc1ccccc1)C(=O)N[C@@H](C)C(=O)N[C@@H](C)C(=O)N[C@@H](C)C(=O)N[C@@H](C)C(=O)N[C@@H](CCCCN)C(=O)N[C@@H](CCCCN)C(=O)N[C@@H](CCCCN)C(=O)N[C@@H](CCCCN)C(N)=O [[F(4)25]] (H-KKAAAAFAAFAAWFAAFAAAAKKKK-NH2; N-terminus assumed)	16 (≈ 40.9 µg/mL)	4 (≈ 10.2 µg/mL)	0.25 (≈ 0.639 µg/mL)		4 (≈ 10.2 µg/mL)		8 (≈ 20.4 µg/mL)	16 (≈ 40.9 µg/mL)	8 (≈ 20.4 µg/mL)	32 (≈ 81.8 µg/mL)	>32	2 (≈ 5.11 µg/mL)	17	42	14	34	8 (≈ 20.4 µg/mL)
